One assay addresses DNMT-1 (Homo sapiens, UniProt P26358). The assay is described as follows: In vitro activity test on DNMT-1. In kind it is biochemical. Particulars: for IC50: in vitro activity on DNMT1, Table 1; for In vitro activity (IC50) compared to ZINC15602870: comparison in words. The method, then: AutoDock Vina was used to screen the 72,000 compounds using the ligands in the original protein as the docking template. […] Continuous fine screening was performed with AutoDock Vina to obtain the top 50 compounds which were then analyzed by cluster analysis. Next, the representative compounds with large structural differences were empirically selected. Finally, a total of 12 representative compounds were selected (see supporting document), purchased from Medrige or synthesized by ourselves.
The side chains of compounds 03 and 07 were then introduced onto position R2 of the new parent ring (Table 1). In vitro activity tests were then performed as previously described ([Datta et al., 2009]).

A further assay has as its system Notch pathway. The assay is described as follows: Expression of Notch pathway-related factors (qPCR) and methylation of the miR-27-3p promoter (BSP-NGS) after iDNMT treatment. In kind it is cell-based, human. As to the method:
The genomic DNA samples from the clinical specimens, tumor tissues, and cultured cells were extracted and isolated using the DNeasy Blood & Tissue Kit (Cat No. 69504; QIAGEN, Hilden, Germany) and treated with the EpiTect Bisulfite Kit (Cat No. 59104; QIAGEN) according to the manufacturer’s instructions. Next, the polymerase chain reactions (PCRs) were performed using DNA samples and a high-fidelity polymerase, Platinum II Hot-Start PCR Master Mix (Cat No. 14000012; Thermo Fisher Scientific), to amplify the selected promoter region (chr19: 13836440-13838517, negative chain [-], the selected promoter region of has-pre-miR-27) of miR-27 with CpG islands (chr19: 13,835,599-13,835,325, negative chain [-]). […] Following PCR experiments, the products were directly sequenced by using Ion Torrent PGM, and the methylation rates were calculated as previously described ([Ma et al., 2020]; [Wang et al., 2021b]; [He et al., 2021]).
For quantitative PCR (qPCR) analysis, the total RNA was extracted from the clinical specimens, LSCC cells, or subcutaneous tumor tissues as described by Ma et al. (2020) before reverse transcription to generate cDNA. The expression of DNMT1, Notch-related factors, and has-pre-miR-27 was examined by real-time quantitative fluorescence PCR (RT-PCR/qPCR) ([Ma et al., 2016]; [Yang et al., 2020]; [Du et al., 2021]) with β-actin as the loading control. […]
Background: Real-time PCR tracks product formation cycle by cycle.

A further assay concerns H226 LSCC cells. The assay is described as follows: Subcutaneous H226 LSCC tumors in nude mice, oral iDNMT with or without RFA. Format: in vivo. The method, then:
The antitumor efficacy of iDNMT, RFA, and iDNMT1 + RFA on LSCC tissues was examined in nude mice. Nude mice aged 5 weeks were obtained from the Si-Bei-Fu Corporation (Beijing, China), and they were fed under specific pathogen-free conditions. The H226 cells (approximately 5 × 10^6 cells/animal), which were transfected with plasmids, were subcutaneously injected into nude mice to generate tumor tissues ([Feng et al., 2019]; [Sun et al., 2019]). The dimensions of these tumors were measured using a Vernier caliper every 7 days. Tumor volumes were calculated according to the following formula: tumoral width × tumoral width × tumoral length/2 ([Feng et al., 2019]; [Sun et al., 2019]). For RFA treatment or RFA + iDNMT treatment, RFA of the LSCC subcutaneous tumors was performed using a thyroid-ablation needle (Cat No.: UniBlate 700-103587 17G, RITA Company, Crystal Lake, IL, United States) when the tumoral volume reached ∼500 mm^3. The conditions for RFA were as follows: 2 min RFA-duration with a series of different temperatures, 65, 60, or 55°C. In addition, iDNMT was administered orally at 10, 5, 2, or 1 mg/kg ([Xie et al., 2018a]; [Xie et al., 2018b]; [Zhou et al., 2021]). The formulation of iDNMT and the oral administration were performed as previously described ([Zou et al., 2021a]; [Zou et al., 2021b]; [Wang et al., 2021c]; [Jie et al., 2021]). Subcutaneous tumors were separated from the animals, and the weights of these tumors were measured using a precision-balance.

The next assay has as its system H226 cells. The assay is described as follows: Subcellular fractionation and Western blotting of H226 cells. Format: cell-based, human. The note with it: immunoblotting. As to the method: The H226 cells were cultured in Dulbecco’s modified Eagle’s medium (DMEM) with 10% (v/v) fetal bovine serum (FBS). The cells were transfected with plasmids or treated with the appropriate concentration of iDNMT [low dose (0.1 μmol/L), medium dose (1 μmol/L), and high dose (10 μmol/L)]. The H226 cells were then harvested for subcellular fractionation assays as previously described. The H226 cells were split into the nuclear subfraction or the cytoplasmic subfraction ([Lu et al., 2013]; [Yang et al., 2013]; [Feng et al., 2018b]). NICD, PSEN-1, and DNMT1 expression levels were examined in the subfractions by immunoblotting using antibodies from Santa Cruz (United States) or Abcam (United Kingdom). We chose β-actin and lamin A as the cytoplasmic and nuclear loading controls or indicators, respectively ([Lu et al., 2013]; [Yang et al., 2013]; [Feng et al., 2018b]).
To further confirm the specificity of iDNMT on the Notch pathway, we analyzed the cytoplasm–nuclear subfraction using immunoblotting. […] The methylation rates of the miR-27-3p′s promoter region and expression level of DNMT-1 or miR-27-3p in cell samples of Figure 5B are shown in Supplementary Figure S1. Therefore, iDNMT represses PSEN-1 expression to inhibit cleavage of Notch, thus inhibiting NICD accumulation in H226 cells.
A general note: A western blot detects proteins with antibodies after separation by electrophoresis.

Chain of DNMT-1 (P26358 whole entry): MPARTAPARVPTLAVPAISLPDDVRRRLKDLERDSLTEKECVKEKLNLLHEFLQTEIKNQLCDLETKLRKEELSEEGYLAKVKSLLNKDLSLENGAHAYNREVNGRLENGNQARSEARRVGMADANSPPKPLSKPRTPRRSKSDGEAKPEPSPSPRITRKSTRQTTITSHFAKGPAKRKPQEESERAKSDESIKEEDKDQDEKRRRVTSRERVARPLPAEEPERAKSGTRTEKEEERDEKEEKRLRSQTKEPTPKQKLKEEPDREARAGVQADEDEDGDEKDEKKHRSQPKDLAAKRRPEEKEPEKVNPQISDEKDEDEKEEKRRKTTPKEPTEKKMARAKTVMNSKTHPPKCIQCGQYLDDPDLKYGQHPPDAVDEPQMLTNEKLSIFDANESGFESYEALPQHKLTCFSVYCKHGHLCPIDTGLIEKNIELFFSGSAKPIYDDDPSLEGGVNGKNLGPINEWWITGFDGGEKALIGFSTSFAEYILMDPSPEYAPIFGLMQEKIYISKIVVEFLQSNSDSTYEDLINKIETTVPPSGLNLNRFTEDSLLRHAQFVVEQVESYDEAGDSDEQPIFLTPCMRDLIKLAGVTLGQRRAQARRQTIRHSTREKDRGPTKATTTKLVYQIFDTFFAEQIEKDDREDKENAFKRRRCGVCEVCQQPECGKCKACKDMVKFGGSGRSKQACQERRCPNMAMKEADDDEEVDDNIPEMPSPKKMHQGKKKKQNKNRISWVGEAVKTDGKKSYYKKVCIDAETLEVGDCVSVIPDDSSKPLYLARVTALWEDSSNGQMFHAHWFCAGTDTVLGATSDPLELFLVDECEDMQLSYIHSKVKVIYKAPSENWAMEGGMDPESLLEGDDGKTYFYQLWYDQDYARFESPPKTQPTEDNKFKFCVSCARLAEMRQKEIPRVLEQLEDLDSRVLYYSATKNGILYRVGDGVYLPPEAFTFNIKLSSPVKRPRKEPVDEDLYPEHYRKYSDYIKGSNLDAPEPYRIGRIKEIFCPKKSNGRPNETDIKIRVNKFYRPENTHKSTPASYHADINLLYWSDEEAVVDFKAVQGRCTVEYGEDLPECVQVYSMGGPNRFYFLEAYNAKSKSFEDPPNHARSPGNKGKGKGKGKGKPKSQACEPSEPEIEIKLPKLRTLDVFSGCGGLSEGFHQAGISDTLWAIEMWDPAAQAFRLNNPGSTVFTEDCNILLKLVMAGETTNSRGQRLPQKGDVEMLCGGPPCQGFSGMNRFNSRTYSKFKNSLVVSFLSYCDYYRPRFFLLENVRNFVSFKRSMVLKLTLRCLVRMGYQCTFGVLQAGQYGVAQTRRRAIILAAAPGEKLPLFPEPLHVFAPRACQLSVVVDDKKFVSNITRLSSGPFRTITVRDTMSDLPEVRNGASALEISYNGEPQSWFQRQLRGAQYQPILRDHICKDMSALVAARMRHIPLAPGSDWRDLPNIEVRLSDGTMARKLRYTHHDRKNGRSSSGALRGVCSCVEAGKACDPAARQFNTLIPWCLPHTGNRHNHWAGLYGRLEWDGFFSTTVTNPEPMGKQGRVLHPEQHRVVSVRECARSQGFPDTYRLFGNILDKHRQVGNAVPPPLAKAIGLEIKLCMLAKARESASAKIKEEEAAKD

As to `COC(=O)CCSc1n[nH]c(NC(=O)c2ccc(C)c(OC)c2)n1` [Compound 05], the midpoint of inhibition at DNMT-1, the IC50, lay at 18 µM.

With `COc1cc(C(=O)Nc2ccc(C(=O)N3CCN(C(C)=O)CC3)cc2)ccc1C` [Compound 03], at DNMT-1, the “In vitro activity (IC50) compared to ZINC15602870” value is “improved IC50 values” and the 50% inhibitory concentration (IC50) is 7 µM.

Consider `COc1cc(C(=O)Nc2ccc(C(=O)N3CCN(C(C)C)CC3)cc2)ccc1C` [Compound 02], for which, at DNMT-1, the “In vitro activity (IC50) compared to ZINC15602870” value is “improved IC50 values” and half-maximal inhibition (IC50) was put at 15 µM.

At DNMT-1, `COc1cc(C(=O)Nc2ccc(C(C)=O)cc2)ccc1C` [Compound 01, N-(4-acetylphenyl)-3-methoxy-4-methylbenzamide] registered an IC50 of 20 µM.

In the case of `CCC(Sc1n[nH]c(NC(=O)c2ccc(OC)c(OC)c2)n1)C(=O)OC` (stereo not shown) [Compound 11], at DNMT-1, the half-maximal inhibitory concentration (IC50) is 6 µM.

At DNMT-1, `COc1ccc(C(=O)Nc2ccc(C(=O)N3CCN(C(C)=O)CC3)cc2)cc1OC` [Compound 10] came in with an IC50 of 4.71 µM. Further, the “methylation of the miR-27-3p promoter region” value in the assay on Notch pathway (Figure 5A) is on record as “decreased methylation of the miR-27-3p promoter region”. For the same compound, the “expression of PSEN-1 or downstream factors of the Notch pathway” value with Notch pathway (N-cadherin, vimentin, survivin, cIAP-1, cIAP-2, Figure 5A) is “inhibit the expression of PSEN-1 or downstream factors of the Notch pathway”. In addition, the LSCC tumor volumes entry in the assay with H226 LSCC cells (2 mg/kg iDNMT oral combined with 2 min RFA at 55°C) is reported as “significantly induced shrinkage of LSCC tumor volumes”. Moreover, the “EMT process of LSCC cells in subcutaneous tissues” value in the assay with H226 LSCC cells (iDNMT with RFA 55°C for 2 min) is reported as “inhibited the EMT process”. Besides, the “miR-27-3p expression in tumor tissues” value in the assay on H226 LSCC cells (oral, 2 mg/kg, leads to inhibition of the Notch pathway) was “significantly upregulated miR-27-3p expression”. Moreover, in the assay on H226 LSCC cells (oral, iDNMT alone, 2 mg/kg), the “subcutaneous growth of H226 cells (antitumor activity)” value is “weak antitumor activity”. The “subcutaneous growth of H226 cells” value in the assay on H226 LSCC cells (oral, iDNMT alone, 5 mg/kg) is listed as “most significant inhibition”. Further, in the assay on H226 LSCC cells (oral, iDNMT alone, 10 mg/kg), the “subcutaneous growth of H226 cells” value is reported as “most significant inhibition”. In the assay with H226 cells (Figure 5B), the DNMT-1 expression result is “no effects on DNMT-1 expression” and the PSEN-1 expression result was “inhibited PSEN-1 expression”. The “accumulation of NICD in the nuclear subfraction” value in the assay on H226 cells (iDNMT low 0.1, medium 1, high 10 μmol/L, dose-dependent) is on record as “reduced accumulation of NICD in the nuclear subfraction”.

Take `COc1cc(C(=O)Nc2nc(SCC3OCCO3)n[nH]2)ccc1C` [Compound 08]: inhibition at DNMT-1 was half-maximal at 30 µM (IC50).

On DNMT-1, `COCCCSc1n[nH]c(NC(=O)c2ccc(C)c(OC)c2)n1` [Compound 06] yielded a half-inhibitory concentration (IC50) of 38 µM.

Consider `CCOC(=O)CCCSc1n[nH]c(NC(=O)c2ccc(C)c(OC)c2)n1` [Compound 09], for which the IC50 at DNMT-1 is 22 µM.

`COc1cc(C(=O)Nc2ccc(S(=O)(=O)NC(=O)c3ccccc3)cc2)ccc1C` [Compound 04]: on DNMT-1, the “In vitro activity (IC50) compared to ZINC15602870” value is “improved IC50 values” and the IC50 worked out at 13 µM.

Turning to `CCC(Sc1n[nH]c(NC(=O)c2ccc(C)c(OC)c2)n1)C(=O)OC` (stereo not shown) [Compound 07], half-maximal inhibition against DNMT-1 (IC50) was put at 9 µM.

Broadly, the IC50 is the concentration needed to halve the response being measured.
